Measurements: PubChem BioAssay AID1549 (Sanford-Burnham Center for Chemical Genomics, 2009)
Activity calls are given as the source filed them. The rule behind the calls is not given here.

Target: Influenza A virus M2 proton channel (A/TW/4845/1999 H1N1)
Test: M2 proton channel binding, NMR based, influenza A virus H1N1 strain (AID 1549)
Conditions: NMR binding screen, M2 protein

| SMILES | Kd |
| --- | --- |
| CSc1ncnc2nc[nH]c12 | > 4 mM (inactive) |
| Cc1ccc(-c2c(C)n([O-])c3c([n+]2=O)CCCC3)o1 | > 4 mM (inactive) |
| O=c1[nH]nc(Cc2ccncc2)c2ccccc12 | > 4 mM (inactive) |
| S=C(CN1CCCC1=S)N1CCOCC1 | > 4 mM (inactive) |
| COC(=O)c1cccc(N)c1 | > 4 mM (inactive) |
| NC(=O)c1ccc(NC(=O)c2cccnc2)cc1 | > 4 mM (inactive) |
| CC(=O)Nc1cccc(-c2n[nH]c(=S)n2C)c1 | > 4 mM (inactive) |
| CN1CCN(c2ccc(CN)cc2)CC1 | > 4 mM (inactive) |
| NC(=O)c1c(Cl)nsc1-c1ccccc1Cl | > 4 mM (inactive) |
| O=C(Nc1nnc(-c2ccccc2Cl)o1)c1ccco1 | > 4 mM (inactive) |
| CC1=CC2C(C(C)C)CCC(C)(O)C2CC1 (stereo not drawn) | > 4 mM (inactive) |
| CC1(C)C=Cc2cc3ccc(=O)oc3cc2O1 | > 4 mM (inactive) |
| CCCn1cnc2sc(C(N)=O)c(C)c2c1=O | > 4 mM (inactive) |
| CC1CCN(C(=O)c2ccc3c(c2)OCCO3)CC1 | > 4 mM (inactive) |
| COc1ccc(-c2coc3cc(OC(C)=O)cc(OC(C)=O)c3c2=O)cc1 | > 4 mM (inactive) |
| OCC1Cc2ccccc2N1 (stereo not drawn) | > 4 mM (inactive) |
| Cc1cc(C)nc(/N=C(/N)N2CCOCC2)n1 | > 4 mM (inactive) |
| COC(=O)c1cn(C(=O)OC)c2ccccc12 | > 4 mM (inactive) |
| CC(=O)O[C@H]1C[C@@H](OC(C)=O)C(C)(C)C2C[C@@H](OC(C)=O)[C@@]3(C)C4=CC(=O)O[C@@H](c5ccoc5)[C@]4(C)CCC3[C@]21C (stereo partly drawn) | > 4 mM (inactive) |
| O=C(CSc1ccccc1)N1CCC2(CC1)OCCO2 | > 4 mM (inactive) |
| CC(C)[C@@H]1CC[C@@H](C)C[C@H]1OC(=O)c1ccccc1 | > 4 mM (inactive) |
| O=C(O)CN1C(=O)c2cccc([N+](=O)[O-])c2C1=O | > 4 mM (inactive) |

| SMILES | Kd |
| --- | --- |
| Clc1ccccc1OCc1nc(-c2ccccn2)no1 | > 4 mM (inactive) |
| CC(C)CCn1cnc2c1c(=O)n(C)c(=O)n2C | > 4 mM (inactive) |
| NN1C(=O)CSC1=Nc1ccccc1 | > 4 mM (inactive) |
| O=C(O)C1CSC2(CCCCC2)N1 (stereo not drawn) | > 4 mM (inactive) |
| S=c1nc2c(n[nH]1)[nH]c1ccccc12 | > 4 mM (inactive) |
| COc1ccc2ccc(=O)oc2c1 | > 4 mM (inactive) |
| Nc1cccc(NC(=O)c2ccco2)c1 | > 4 mM (inactive) |
| CC1/C(=N/O)C[C@@H]2C[C@H]1C2(C)C (stereo partly drawn) | > 4 mM (inactive) |
| Cc1cc(O)c2c(c1)C(=O)c1cccc(O)c1C2=O | > 4 mM (inactive) |
| CN1C(=O)Cc2cc(S(N)(=O)=O)ccc21 | > 4 mM (inactive) |
| Nc1cccnc1N1CCOCC1 | > 4 mM (inactive) |
| Nc1cc(C(=O)O)ccc1N1CCCCCC1 | > 4 mM (inactive) |
| O=C(Nc1nnc(-c2ccncc2)o1)c1cccs1 | > 4 mM (inactive) |
| O=C1CSC(=S)N1N1C(=O)C2C3C=CC(C3)C2C1=O (stereo not drawn) | > 4 mM (inactive) |
| O=c1nc(N2CCCCC2)nc2n1CCO2 | > 4 mM (inactive) |
| CC[C@@]1(O)C(=O)OCc2c1cc1n(c2=O)Cc2cc3ccccc3nc2-1 | > 4 mM (inactive) |
| O=C(O)c1coc2c1C(=O)CCC2 | > 4 mM (inactive) |
| O=C(CC1CCCCC1)N1CCN(c2ccccn2)CC1 | > 4 mM (inactive) |
| O=C(O)CC[N+](=O)[O-] | > 4 mM (inactive) |
| COc1cc2c(cc1OC)-c1cc3ccc(OC)c(OC)c3c[n+]1CC2 | > 4 mM (inactive) |
| Cc1ccccc1CSc1nnc(C)n1N | > 4 mM (inactive) |
| C=CC(C)(O)CC/C=C(\C)CCC=C(C)C (stereo not drawn) | > 4 mM (inactive) |

| SMILES | Kd |
| --- | --- |
| Cc1noc(-c2ccccc2)c1CO | > 4 mM (inactive) |
| O=C(C1CCCCC1)N1CCN(c2ccccc2F)CC1 | > 4 mM (inactive) |
| O=C1NC(=S)N/C1=C/c1ccc(O)c(Cl)c1 | > 4 mM (inactive) |
| NC(=O)Cn1cnc2c(cnn2-c2ccccc2)c1=O | > 4 mM (inactive) |
| Cc1noc(C)c1C(=O)N1CCc2ccccc21 | > 4 mM (inactive) |
| O=C(O)c1ccc(-n2cncn2)cc1 | > 4 mM (inactive) |
| COc1c2occc2c(OC)c2c(=O)cc(C)oc12 | > 4 mM (inactive) |
| COCc1c(CN)cnc(C)c1N | > 4 mM (inactive) |
| CN1CCn2c1nc(N1CCOCC1)nc2=O | > 4 mM (inactive) |
| CCNC(=S)N1CCC(C(N)=O)CC1 | > 4 mM (inactive) |
| C[C@]12C=CC(=O)C=C1CCC1C2CC[C@]2(C)C(=O)CCC12 (stereo partly drawn) | > 4 mM (inactive) |
| CC[C@H](/C=C/C(C)C1CCC2C3CCC4=CC(=O)CC[C@]4(C)C3CC[C@]12C)C(C)C (stereo partly drawn) | > 4 mM (inactive) |
| COc1cc(C)c(S(=O)(=O)N2CCN(C)CC2)cc1C | > 4 mM (inactive) |
| NC(=O)CSCc1c(Cl)cccc1Cl | > 4 mM (inactive) |
| CCOc1ccc(-c2n[nH]c(=S)n2C)cc1 | > 4 mM (inactive) |
| OCc1csc(-c2ccccc2)n1 | > 4 mM (inactive) |
| O=c1nc(NCc2ccco2)sc2ncccc12 | > 4 mM (inactive) |
| CC(C)=CC1C(CO)C1(C)C (stereo not drawn) | > 4 mM (inactive) |
| CC(=O)c1c(C)nc(C)nc1NC(=O)C(C)C | > 4 mM (inactive) |
| COc1ccc2c(c1)OC/C(=C\c1ccc(OC)c(O)c1)C2=O | > 4 mM (inactive) |
| OCc1ccccc1CN1CCOCC1 | > 4 mM (inactive) |
| Cc1noc(C)c1C(=O)Nc1ccc2c(c1)CCC2 | > 4 mM (inactive) |

| SMILES | Kd |
| --- | --- |
| CCOC(=O)C1CCN(Cc2ccccc2)CC1 | > 4 mM (inactive) |
| CC(=O)N1C(=S)NC(=O)/C1=C\c1cccnc1 | > 4 mM (inactive) |
| Cc1[nH]n(-c2ccccc2)c(=O)c1[N+](=O)[O-] | > 4 mM (inactive) |
| COc1cc2nc(N3CCNCC3)nc(N)c2cc1OC | > 4 mM (inactive) |
| Cc1n[nH]c(=O)c2ncn(C)c12 | > 4 mM (inactive) |
| CCCNC(=O)c1cnc2n(c1=O)CCS2 | > 4 mM (inactive) |
| COc1cc2nc(-c3cccs3)oc(=O)c2cc1OC | > 4 mM (inactive) |
| Cc1nc2nc(Cc3ccccc3)nn2c(C)c1Cl | > 4 mM (inactive) |
| OCCN1CCN(C(=S)c2ccc(Cl)cc2)CC1 | > 4 mM (inactive) |
| Cc1cc(C)nc(NC(N)=NCc2ccco2)n1 | > 4 mM (inactive) |
| CC(=O)Nc1ccc(Nc2nnc(C)c(=O)[nH]2)cc1 | > 4 mM (inactive) |
| O=C(Nc1ccccc1)NC1CCS(=O)(=O)C1 (stereo not drawn) | > 4 mM (inactive) |
| O=C1C2C3C=CC(C3)C2C(=O)N1CCCO (stereo not drawn) | > 4 mM (inactive) |
| Cc1ccc(C)n1/N=C1\NC(=O)CS1 | > 4 mM (inactive) |
| Brc1ccc(-c2nc(-c3ccncc3)no2)o1 | > 4 mM (inactive) |
| Cc1c(C(=O)Nc2cnccn2)oc2ccccc12 | > 4 mM (inactive) |
| CCC1C(=O)OCC1Cc1cncn1C (stereo not drawn) | > 4 mM (inactive) |
| O=[n+]1c2c(n([O-])c3ccccc31)CCCC2 | > 4 mM (inactive) |
| CC12CCCC(O)(C1)C1CC(C)(C)C1CC2 (stereo not drawn) | > 4 mM (inactive) |
| CC(=O)Oc1ccc(N2C(=O)C3C4C=CC(O4)C3C2=O)cc1 (stereo not drawn) | > 4 mM (inactive) |
| O=C1CSC(=Nc2ccc(O)cc2)N1 | > 4 mM (inactive) |
| NS(=O)(=O)c1ccc2c(c1)OCCO2 | > 4 mM (inactive) |
